Laboratory results: patent US8101656B2, “Use of 2,2-dimethyl-3-(2,4-dichlorophenyl)-2-oxo-1-oxaspiro[4,5]dec-3-en-4-yl butanoate for controlling acarides” (Bayer CropScience AG, priority 2003, dated 2012)

Tests used:
Format in all cases: in vivo
[1] = system: Tetranychus urticae; experiment: Example B: field spray test against spider mites on hops; settings: 2200 l/ha, sprayed once
Method: Pest: Tetranycus Urticae Crop: Hops The compound of the formula (I) (240SC) was tested at a concentration of 0.0144% a.i. in comparison with the standard Amitraz (200 EC) at 0.05% a.i. The mixture was sprayed once. The spray mixture (2200 l/ha) was applied using a trailed machine operated by a tractor. The plot size was 60 plants, and 2 replications were carried out per test variant. The activity against spider mites was determined 5, 12, 19 and 34 days after the treatment by counting the live animals/leaf (60 leaves/plot) and calculating the efficacy using Abbott's formula.

[2] = system: Eotetranychus hicoriae; experiment: Example D: spray test against pecan leaf scorch mite on pecan nut tree; settings: 0.313 pounds a.i. per acre
Method: Pest: Eotetranychus Hicoriae
The compound of the formula (I) (240 SC) was tested at an application rate of 0.313 lb a.i. per acre in comparison with ACRAMIT (Bifenazate, 50 WP) at 0.50 pound of a.i. per acre.
The spray mixture (105 gallons per acre) was applied by means of a motor-operated hand-held sprayer.
The experiment was carried out with one tree per plot and four replication experiments.
The efficacy against the pecan leaf scorch mite was determined by counting the number of live mites on five leaves per tree 6 and 13 days after the application and subsequently calculated by means of the Abbott formula.

[3] = system: Tetranychus urticae; experiment: Example C: spray test against spider mites (eggs and nymphs) on black walnut tree; settings: 0.126 pounds a.i. per acre
Method: Pest: Tetranychus Urticae
The compound of the formula (I) (240 SC) was tested at a concentration of 2.02 ounces a.i. per 100 gallons (=0.126 pounds a.i. per acre) in comparison with PYRAMAT (Pyridaben, 75 WP) at an application rate of 0.125 pound a.i. per acre.
The spray mixture (100 gallons per acre) was applied by means of a motor-operated hand-held sprayer.
The test was carried out with one tree per plot and three replication experiments.
The efficacy against spider mites was calculated by counting the live eggs and nymphs on eight leaves per tree before and one, two and six weeks after the application and subsequently calculated using the formula of Henderson & Tilton.

[4] = system: Tetranychus urticae; experiment: Example A: field spray test against spider mites on hops; settings: 2000 l/ha
Method: Pest: Tetranychus Urticae Crop: Hops The compound of the formula (I) (240SC) was tested at a concentration of 0.0048% a.i. in comparison with cis-cyhalothrin (050EC) at 0.005% a.i. The compound of the formula (I) was used at an early stage of the infestation of the pest, while cis-cyhalothrin was applied when the infestation had progressed to a high level. The spray mixture (2000 l/ha) was applied using a knapsack sprayer operated with compressed air. The plot size was 6 plants, the number of replications per test variant was 2. The activity against spider mites was determined 4, 14 and 21 days (compound of the formula (I)) and 4, 11 and 18 days (cis-cyhalothrin) after the treatment by counting the live animals/leaf (10 leaves/plot) and calculating the efficacy using Abbott's formula.

## CCC(C)(C)C(=O)OC1=C(c2ccc(Cl)cc2Cl)C(=O)OC12CCCCC2 [Compound of the formula (I) (240 SC), 2,2-Dimethyl-3-(2,4-dichlorophenyl)-2-oxo-1-oxaspiro[4.5]dec-3-en-yl butanoate]
[1]; 0.0144% a.i., 5 days after treatment
  Efficacy in % Abbott: 89.7%
[1]; 0.0144% a.i., 12 days after treatment
  Efficacy in % Abbott: 98.1%
[1]; 0.0144% a.i., 19 days after treatment
  Efficacy in % Abbott: 99.6%
[2]; 6 DAA (days after application)
  Efficacy in Abbot %: 100%
[2]; 13 DAA
  Efficacy in Abbot %: 80%
[3]; 1 WAA
  Efficacy in Henderson&Tilton % against NYMPHS: 100%
[3]; 1 WAA (one week after application)
  Efficacy in Henderson&Tilton % against EGGS: 100%
[3]; 2 WAA
  Efficacy in Henderson&Tilton % against EGGS: 100%
  Efficacy in Henderson&Tilton % against NYMPHS: 100%
[3]; 6 WAA
  Efficacy in Henderson&Tilton % against EGGS: 64%
  Efficacy in Henderson&Tilton % against NYMPHS: 83%
[4]; 0.0048% a.i., applied at early stage of infestation, 4 days after treatment
  Efficacy in % Abbott: 90%
[4]; 0.0048% a.i., applied at early stage of infestation, 14 days after treatment
  Efficacy in % Abbott: 94%
[4]; 0.0048% a.i., applied at early stage of infestation, 21 days after treatment
  Efficacy in % Abbott: 93%

## Cc1ccc(/N=C/N(C)/C=N/c2ccc(C)cc2C)c(C)c1 [Amitraz (200 EC), Amitraz, reference compound]
[1]; 0.05% a.i., 5 days after treatment
  Efficacy in % Abbott: 80.1%
[1]; 0.05% a.i., 12 days after treatment
  Efficacy in % Abbott: 96.3%
[1]; 0.05% a.i., 19 days after treatment
  Efficacy in % Abbott: 92.2%

## CC1(C)C(/C=C(\Cl)C(F)(F)F)C1C(=O)OC(C#N)c1cccc(Oc2ccccc2)c1 (stereo not drawn) [Cis-cyhalothrin (050 EC), cis-cyhalothrin, reference compound]
[4]; 0.005% a.i., applied at high level of infestation, 4 days after treatment
  Efficacy in % Abbott: 59%
[4]; 0.005% a.i., applied at high level of infestation, 11 days after treatment
  Efficacy in % Abbott: 57%
[4]; 0.005% a.i., applied at high level of infestation, 18 days after treatment
  Efficacy in % Abbott: 0%
